Results as given in patent US8188082B2, “5,6,7,8-tetrahydro-imidazo[1,5-α]pyrazine derivatives” (Actelion Pharmaceuticals Ltd., priority 2006, dated 2012).

Assays:
[1] = molecular target: T1, human orexin-1 receptor (Homo sapiens, UniProt O43613); test: Intracellular calcium measurements (FLIPR), orexin receptor antagonistic activity, OX1; assay type: cell-based; details: CHO cells expressing human orexin-1 receptor; 10 nM orexin-A as agonist
T1 construct: expressed in transfected cells; host or cells: CHO cells (G418 selection)
T1 sequence (O43613 1-425): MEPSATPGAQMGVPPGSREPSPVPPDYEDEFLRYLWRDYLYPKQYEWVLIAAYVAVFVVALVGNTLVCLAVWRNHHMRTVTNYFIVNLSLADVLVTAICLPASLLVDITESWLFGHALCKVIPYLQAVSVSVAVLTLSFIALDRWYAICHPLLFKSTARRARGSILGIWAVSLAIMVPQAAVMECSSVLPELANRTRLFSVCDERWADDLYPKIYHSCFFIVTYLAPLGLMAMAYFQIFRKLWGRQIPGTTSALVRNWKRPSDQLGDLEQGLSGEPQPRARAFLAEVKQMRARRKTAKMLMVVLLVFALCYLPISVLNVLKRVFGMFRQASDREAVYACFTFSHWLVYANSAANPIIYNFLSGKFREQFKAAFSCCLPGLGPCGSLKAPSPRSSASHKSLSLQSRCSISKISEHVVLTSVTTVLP
Experimental: (§1) Intracellular Calcium Measurements:
(§2) Chinese hamster ovary (CHO) cells expressing the human orexin-1 receptor and the human orexin-2 receptor, respectively, are grown in culture medium (Ham F-12 with L-Glutamine) containing 300 μg/ml G418, 100 U/ml penicillin, 100 μg/ml streptomycin and 10% inactivated fetal calf serum (FCS). The cells are seeded at 80,000 cells/well into 96-well black clear bottom sterile plates (Costar) which have been precoated with 1% gelatine in Hanks' Balanced Salt Solution (HBSS). All reagents are from Gibco BRL. The seeded plates are incubated overnight at 37° C. in 5% CO2.
(§3) Human orexin-A as an agonist is prepared as 1 mM stock solution in MeOH:water (1:1), diluted in HBSS containing 0.1% bovine serum albumin (BSA) and 2 mM HEPES for use in the assay at a final concentration of 10 nM.
(§4) Antagonists are prepared as 10 mM stock solution in DMSO, then diluted in 96-well plates, first in DMSO, then in HBSS containing 0.1% bovine serum albumin (BSA) and 2 mM HEPES.
(§5) On the day of the assay, 100 μl of loading medium (HBSS containing 1% FCS, 2 mM HEPES, 5 mM probenecid (Sigma) and 3 μM of the fluorescent calcium indicator fluo-3 AM (1 mM stock solution in DMSO with 10% pluronic acid) (Molecular Probes) is added to each well.
(§6) The 96-well plates are incubated for 60 min at 37° C. in 5% CO2. The loading solution is then aspirated and cells are washed 3 times with 200 μl HBSS containing 2.5 mM probenecid, 0.1% BSA, 2 mM HEPES. 100 μl of that same buffer is left in each well.
(§7) Within the Fluorescent Imaging Plate Reader (FLIPR, Molecular Devices), antagonists are added to the plate in a volume of 50 μl, incubated for 20 min and finally 100 μl of agonist is added. Fluorescence is measured for each well at 1 second intervals, and the height of each fluorescence peak is compared to the height of the fluorescence peak induced by 10 nM orexin-A with buffer in place of antagonist. For each antagonist, IC50 value (the concentration of compound needed to inhibit 50% of the agonistic response) is determined.

[2] = molecular target: T2, human orexin-2 receptor (Homo sapiens, UniProt O43614); test: Intracellular calcium measurements (FLIPR), orexin receptor antagonistic activity, OX2; assay type: cell-based; details: CHO cells expressing human orexin-2 receptor; 10 nM orexin-A as agonist
T2 construct: expressed in transfected cells; host or cells: CHO cells (G418 selection)
T2 sequence (O43614 1-444): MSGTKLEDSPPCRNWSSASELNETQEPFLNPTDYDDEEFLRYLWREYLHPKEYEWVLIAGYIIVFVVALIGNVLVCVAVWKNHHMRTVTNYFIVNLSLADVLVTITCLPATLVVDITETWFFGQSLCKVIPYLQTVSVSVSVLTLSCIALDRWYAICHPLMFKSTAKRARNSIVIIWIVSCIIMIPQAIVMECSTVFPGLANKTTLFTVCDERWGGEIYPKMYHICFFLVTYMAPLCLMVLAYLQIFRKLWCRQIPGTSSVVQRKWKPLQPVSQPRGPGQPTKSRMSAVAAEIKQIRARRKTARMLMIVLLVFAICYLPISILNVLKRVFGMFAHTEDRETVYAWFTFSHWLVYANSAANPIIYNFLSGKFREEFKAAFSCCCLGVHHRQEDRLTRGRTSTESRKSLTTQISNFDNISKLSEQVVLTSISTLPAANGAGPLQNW
Experimental: as §1, §2, §3, §4, §5, §6, §7

Structure (SMILES)	IC50 [1]	IC50 [2]
CNC(=O)[C@@H](c1ccccc1)N1CCn2c(C)nc(C#N)c2[C@@H]1CCc1ccc(C(F)(F)F)c(F)c1 [43 (8S; 2′R), (R)-2′-{1-cyano-(S)-8-[2-(3-fluoro-4-trifluoromethyl-phenyl)-ethyl]-3-methyl-5,6-dihydro-8H-imidazo[1,5-a]pyrazin-7-yl}-N-methyl-2′-phenyl-acetamide]	0.538 µM	0.014 µM
CCc1nc(Cl)c2n1CCN([C@@H](C(=O)NC)c1ccccc1)[C@H]2CCc1cc(F)c(OC)c(F)c1 [36 (8S; 2′R), (R)-2′-{1-chloro-(S)-8-[2-(3,5-difluoro-4-methoxy-phenyl)-ethyl]-3-ethyl-5,6-dihydro-8H-imidazo[1,5-a]pyrazin-7-yl}-N-methyl-2′-phenyl-acetamide]	0.017 µM	0.014 µM
CNC(=O)[C@@H](c1ccccc1)N1CCn2c(C)nc(Cl)c2C1CCc1ccc(C)c(C)c1 (mixture of isomers) [11 (8S; 2′R)/(8R; 2′R)]	0.036 µM	0.011 µM
CNC(=O)[C@@H](c1ccccc1)N1CCn2c(C)nc(C)c2C1CCc1ccc(OC)cc1OC (mixture of isomers) [25 (8S; 2′R)/(8R; 2′R)]	≥ 10 µM	0.115 µM
CNC(=O)[C@@H](c1ccccc1)N1CCn2c(C)nc(Cl)c2[C@H]1CCc1cc(F)c(C)c(F)c1 [10 (8R; 2′R), (R)-2′-{1-chloro-(R)-8-[2-(3,5-difluoro-4-methyl-phenyl)-ethyl]-3-methyl-5,6-dihydro-8H-imidazo[1,5-a]pyrazin-7-yl}-N-methyl-2′-phenyl-acetamide]	0.072 µM	0.014 µM
CCc1nc(OC)c2n1CCN([C@@H](C(=O)NC)c1ccccc1)[C@H]2CCc1ccc(C)c(C)c1 [27 (8S; 2′R), (R)-2′-{(S)-8-[2-(3,4-dimethyl-phenyl)-ethyl]-3-ethyl-1-methoxy-5,6-dihydro-8H-imidazo[1,5-a]pyrazin-7-yl}-N-methyl-2′-phenyl-acetamide]	0.005 µM	0.004 µM
CCc1nc(Cl)c2n1CCN([C@@H](C(=O)NC)c1ccccc1)[C@H]2COc1cccc(C(F)(F)F)c1 [53 (8R; 2′R), (R)-2′-[1-chloro-3-ethyl-(R)-8-(3-trifluoromethyl-phenoxymethyl)-5,6-dihydro-8H-imidazo[1,5-a]pyrazin-7-yl]-N-methyl-2′-phenyl-acetamide]	0.412 µM	0.002 µM

Now from value to molecule:

IC50 [1]	IC50 [2]	Structure (SMILES)
0.176 µM	0.029 µM	C=Cc1nc(CC)n2c1[C@H](CCc1ccc(C(F)(F)F)cc1)N([C@@H](C(=O)NC)c1ccccc1)CC2 [28 (8S; 2′R), (R)-2′-{3-ethyl-(S)-8-[2-(4-trifluoromethyl-phenyl)-ethyl]-1-vinyl-5,6-dihydro-8H-imidazo[1,5-a]pyrazin-7-yl}-N-methyl-2′-phenyl-acetamide]
2.06 µM	0.033 µM	CNC(=O)[C@@H](c1ccccc1)N1CCn2c(COC)nc(Cl)c2C1CCc1ccc(C(F)(F)F)cc1 (mixture of isomers) [16 (8S; 2′R)/(8R; 2′R)]
0.762 µM	0.021 µM	CNC(=O)[C@@H](c1ccccc1)N1CCn2c(C)nc(C3CC3)c2[C@@H]1CCc1ccc(C(F)(F)F)cc1 [46 (8S; 2′R), (R)-2′-{1-cyclopropyl-3-methyl-(S)-8-[2-(4-trifluoromethyl-phenyl)-ethyl]-5,6-dihydro-8H-imidazo[1,5-a]pyrazin-7-yl}-N-methyl-2′-phenyl-acetamide]
0.279 µM	0.011 µM	CNC(=O)[C@@H](c1ccccc1)N1CCn2c(Cl)nc(Cl)c2C1CCc1ccc(C(F)(F)F)cc1 (mixture of isomers) [33 (8S; 2′R)/(8R; 2′R)]
0.807 µM	0.015 µM	CCc1nc(C(F)(F)F)c2n1CCN([C@@H](C(=O)NC)c1ccccc1)[C@H]2CCc1ccc(C(F)(F)F)cc1 [15 (8S; 2′R), (R)-2′-{3-ethyl-1-trifluoromethyl-(S)-8-[2-(4-trifluoromethyl-phenyl)-ethyl]-5,6-dihydro-8H-imidazo[1,5-a]pyrazin-7-yl}-N-methyl-2′-phenyl-acetamide]
